One assay concerns the target AChE (Homo sapiens, UniProt P22303). Kind of assay: biochemical. Particulars: mean ± SD; for inhibition at 50 µM: 50 µM compound, NA = not active. On the procedure:
(§1) A previously described modified protocol of Ellman's spectrophotometric assay in clear flat-bottomed, 96-well plates, was used. […] The absorbance of each well was measured at 415 nm using a microplate reader. […]

A further assay deals with BChE (Homo sapiens, UniProt P06276). Kind of assay: BChE inhibition, modified Ellman's spectrophotometric assay. It is filed as biochemical. Particulars: 50 µM compound; mean ± SD; NA = not active. How it is done: as §1
Chain of BChE (P06276 29-602): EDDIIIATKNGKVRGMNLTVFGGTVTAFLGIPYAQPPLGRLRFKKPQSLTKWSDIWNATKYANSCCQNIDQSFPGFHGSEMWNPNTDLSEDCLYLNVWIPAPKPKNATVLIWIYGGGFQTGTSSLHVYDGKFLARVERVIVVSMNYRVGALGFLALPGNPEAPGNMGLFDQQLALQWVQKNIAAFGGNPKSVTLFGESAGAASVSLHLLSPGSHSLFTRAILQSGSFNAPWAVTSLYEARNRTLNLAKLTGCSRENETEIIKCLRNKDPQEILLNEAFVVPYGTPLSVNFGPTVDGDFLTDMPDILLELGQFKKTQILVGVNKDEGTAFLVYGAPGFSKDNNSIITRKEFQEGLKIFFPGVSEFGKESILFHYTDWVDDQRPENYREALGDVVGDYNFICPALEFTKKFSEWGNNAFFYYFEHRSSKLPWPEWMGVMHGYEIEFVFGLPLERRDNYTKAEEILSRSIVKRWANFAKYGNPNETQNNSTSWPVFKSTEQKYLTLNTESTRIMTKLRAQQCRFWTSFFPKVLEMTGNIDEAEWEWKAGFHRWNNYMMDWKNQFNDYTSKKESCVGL

Chain of AChE (P22303 32-614): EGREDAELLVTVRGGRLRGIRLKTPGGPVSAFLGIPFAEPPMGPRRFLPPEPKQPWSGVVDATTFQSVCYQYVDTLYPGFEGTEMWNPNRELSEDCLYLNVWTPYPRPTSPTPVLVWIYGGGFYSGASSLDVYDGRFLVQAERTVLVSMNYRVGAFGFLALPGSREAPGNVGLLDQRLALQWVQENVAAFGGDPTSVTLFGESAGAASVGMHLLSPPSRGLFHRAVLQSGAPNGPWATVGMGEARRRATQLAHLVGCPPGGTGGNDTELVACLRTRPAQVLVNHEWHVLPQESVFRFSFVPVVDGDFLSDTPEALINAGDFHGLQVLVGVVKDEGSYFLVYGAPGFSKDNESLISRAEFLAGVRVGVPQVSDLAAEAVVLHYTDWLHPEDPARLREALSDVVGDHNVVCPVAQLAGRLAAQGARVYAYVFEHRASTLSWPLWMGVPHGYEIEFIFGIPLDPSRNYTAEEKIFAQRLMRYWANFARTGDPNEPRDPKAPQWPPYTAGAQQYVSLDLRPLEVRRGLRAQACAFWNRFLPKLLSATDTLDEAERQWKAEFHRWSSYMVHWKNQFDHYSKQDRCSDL

Turning to `CCOC(=O)C(C(N)=O)c1c([N+](=O)[O-])c2n(c1-c1ccccc1)CCCN2` (stereo not shown) [Compound 4g, Ethyl 3-amino-2-(8-nitro-6-phenyl-1,2,3,4-tetrahydropyrrolo[1,2-a]pyrimidin-7-yl)-3-oxopropanoate], 50 µM produced 30.8 ± 5.17% inhibition on AChE.

At BChE, `N#CC(C(N)=O)c1c([N+](=O)[O-])c(NCc2ccco2)n(Cc2ccco2)c1-c1ccc(Cl)cc1` (stereo not shown) [Compound 4s, 2-(2-(4-chlorophenyl)-1-(furan-2-ylmethyl)-5-((furan-2-ylmethyl)amino)-4-nitro-1H-pyrrol-3-yl)-2-cyanoacetamide] gave an inhibition at 50 µM of 29.5 ± 3.87%.

With `COc1cccc(-c2c(C(C#N)C(N)=O)c([N+](=O)[O-])c3n2CCCN3)c1` (stereo not shown) [Compound 4f, 2-cyano-2-(6-(3-methoxyphenyl)-8-nitro-1,2,3,4-tetrahydropyrrolo[1,2-a]pyrimidin-7-yl)acetamide], the inhibition at 50 µM against AChE came out at 33.5 ± 5.19%; on BChE, 17.8 ± 2.79%.

As for `COc1ccc(-n2c(SC)c([N+](=O)[O-])c(C(C#N)C(N)=O)c2-c2ccc(Cl)cc2)cc1` (stereo not shown) [Compound 4aa, 2-(2-(4-chlorophenyl)-1-(4-methoxyphenyl)-5-(methylthio)-4-nitro-1H-pyrrol-3-yl)-2-cyanoacetamide], on AChE, testing at 50 µM gave an inhibition of 48.6 ± 2.77% and the IC50 was 54.6 ± 5.71 µM. Also, the inhibition at 50 µM against BChE came to 22.3 ± 3.91%.

Turning to `CCOC(=O)C(C(N)=O)c1c([N+](=O)[O-])c(NCc2ccccc2)n(Cc2ccccc2)c1-c1ccc(C)cc1` (stereo not shown) [Compound 4t, Ethyl 3-amino-2-(1-benzyl-5-(benzylamino)-4-nitro-2-(p-tolyl)-1H-pyrrol-3-yl)-3-oxopropanoate], on BChE, the inhibition at 50 µM amounted to 26.5 ± 5.12%.

The compound `N#CC(C(N)=O)c1c(-c2ccc3ccccc3c2)[nH]c(N)c1[N+](=O)[O-]` (stereo not shown) [Compound 4y, 2-(5-amino-2-(naphthalen-2-yl)-4-nitro-1H-pyrrol-3-yl)-2-cyanoacetamide] showed an inhibition at 50 µM at BChE of 19.1 ± 4.3%.

As to `CC1(C)CNc2c([N+](=O)[O-])c(C(C#N)C(N)=O)c(-c3ccccc3)n2C1` (stereo not shown) [Compound 4b, 2-cyano-2-(3,3-dimethyl-8-nitro-6-phenyl-1,2,3,4-tetrahydropyrrolo[1,2-a]pyrimidin-7-yl)acetamide], on AChE, the inhibition at 50 µM came out at 52 ± 4.43% and half-maximal inhibition (IC50) was put at 37.1 ± 3.52 µM.

In turn, `CCOC(=O)C(C(N)=O)c1c([N+](=O)[O-])c(SC)n(-c2ccc(C)cc2)c1-c1ccccc1` (stereo not shown) [Compound 4ai, Ethyl3-amino-2-(5-(methylthio)-4-nitro-2-phenyl-1-(p-tolyl)-1H-pyrrol-3-yl)-3-oxopropanoate] registered an inhibition at 50 µM against AChE of 24.2 ± 2.23%.

The compound `N#CC(C(N)=O)c1c([N+](=O)[O-])c(NCc2ccccc2)n(Cc2ccccc2)c1-c1ccc(Cl)cc1` (stereo not shown) [Compound 4p, 2-(1-benzyl-5-(benzylamino)-2-(4-chlorophenyl)-4-nitro-1H-pyrrol-3-yl)-2-cyanoacetamide] had an inhibition at 50 µM on AChE of 18.7 ± 3.52%.

With `COC(=O)C(C(N)=O)c1c([N+](=O)[O-])c2n(c1-c1ccc(Cl)cc1)CC(C)(C)CN2` (stereo not shown) [Compound 4k, Methyl3-amino-2-(6-(4-chlorophenyl)-3,3-dimethyl-8-nitro-1,2,3,4-tetrahydropyrrolo[1,2-a]pyrimidin-7-yl)-3-oxopropanoate], the inhibition at 50 µM against AChE amounted to 13.3 ± 4.88%; on BChE, 13.7 ± 2.13%.

Regarding `COC(=O)C(C(N)=O)c1c([N+](=O)[O-])c2n(c1-c1ccc(C)cc1)CC(C)(C)CN2` (stereo not shown) [Compound 4j, Methyl3-amino-2-(3,3-dimethyl-8-nitro-6-(p-tolyl)-1,2,3,4-tetrahydropyrrolo[1,2-a]pyrimidin-7-yl)-3-oxopropanoate], the inhibition at 50 µM against AChE is 14.9 ± 2.45%; against BChE, 28.2 ± 3.83%.

As to `N#CC(C(N)=O)c1c(-c2ccc(Cl)cc2)[nH]c(N)c1[N+](=O)[O-]` (stereo not shown) [Compound 4w, 2-(5-amino-2-(4-chlorophenyl)-4-nitro-1H-pyrrol-3-yl)-2-cyanoacetamide], the inhibition at 50 µM was 48.6 ± 4.53% against AChE and 33.5 ± 3.4% at BChE.

`CCOC(=O)C(C(N)=O)c1c([N+](=O)[O-])c(NCc2ccco2)n(Cc2ccco2)c1-c1ccc(Cl)cc1` (stereo not shown) [Compound 4n, Ethyl3-amino-2-(2-(4-chlorophenyl)-1-(furan-2-ylmethyl)-5-((furan-2-ylmethyl)amino)-4-nitro-1H-pyrrol-3-yl)-3-oxopropanoate] had an inhibition at 50 µM at BChE of 21.9 ± 1.18%.

For the compound `N#CC(C(N)=O)c1c([N+](=O)[O-])c2n(c1-c1ccccc1)CCCN2` (stereo not shown) [Compound 4c, 2-cyano-2-(8-nitro-6-phenyl-1,2,3,4-tetrahydropyrrolo[1,2-a]pyrimidin-7-yl)acetamide], testing at 50 µM against AChE gave an inhibition of 39.8 ± 3.69%.

At AChE, `Cc1ccc(-c2c(C(C#N)C(N)=O)c([N+](=O)[O-])c3n2CC(C)(C)CN3)cc1` (stereo not shown) [Compound 4h, 2-cyano-2-(3,3-dimethyl-8-nitro-6-(p-tolyl)-1,2,3,4-tetrahydropyrrolo[1,2-a]pyrimidin-7-yl)acetamide] had an inhibition at 50 µM of 45.8 ± 2.81% and an IC50 of 67.6 ± 7.54 µM.

The compound `CCOC(=O)C(C(N)=O)c1c([N+](=O)[O-])c2n(c1-c1ccc(C)cc1)CC(C)(C)CN2` (stereo not shown) [Compound 4l, Ethyl3-amino-2-(3,3-dimethyl-8-nitro-6-(p-tolyl)-1,2,3,4-tetrahydropyrrolo[1,2-a]pyrimidin-7-yl)-3-oxopropanoate] yielded an inhibition at 50 µM against AChE of 14.2 ± 2.12%.

In the case of `COC(=O)C(C(N)=O)c1c([N+](=O)[O-])c(SC)n(-c2ccc(C)cc2)c1-c1ccccc1` (stereo not shown) [Compound 4af, Methyl 3-amino-2-(5-(methylthio)-4-nitro-2-phenyl-1-(p-tolyl)-1H-pyrrol-3-yl)-3-oxopropanoate], the inhibition at 50 µM against AChE stood at 24 ± 4.6%.

On AChE, `CSc1c([N+](=O)[O-])c(C(C#N)C(N)=O)c(-c2ccc(C)cc2)n1-c1ccc(C)cc1` (stereo not shown) [Compound 4ag, 2-cyano-2-(5-(methylthio)-4-nitro-1,2-di-p-tolyl-1H-pyrrol-3-yl)acetamide] showed an inhibition at 50 µM of 33.3 ± 2.31%.

For the compound `CSc1c([N+](=O)[O-])c(C(C#N)C(N)=O)c(-c2ccc(Cl)cc2)n1-c1ccc(C)cc1` (stereo not shown) [Compound 4ah, 2-(2-(4-chlorophenyl)-5-(methylthio)-4-nitro-1-(p-tolyl)-1H-pyrrol-3-yl)-2-cyanoacetamide], on AChE, at 50 µM the inhibition was 72.5 ± 3.05% and the IC50 worked out at 4.78 ± 1.63 µM.

For `CSc1c([N+](=O)[O-])c(C(C#N)C(N)=O)c(-c2ccc(C)cc2)n1-c1ccc(C)c(C)c1` (stereo not shown) [Compound 4z, 2-cyano-2-(1-(3,4-dimethylphenyl)-5-(methylthio)-4-nitro-2-(p-tolyl)-1H-pyrrol-3-yl)acetamide], the inhibition at 50 µM on AChE amounted to 26.7 ± 5.14%.

In the case of `COC(=O)C(C(N)=O)c1c([N+](=O)[O-])c(SC)n(-c2ccc(C)c(C)c2)c1-c1ccccc1` (stereo not shown) [Compound 4aj, Methyl3-amino-2-(1-(3,4-dimethylphenyl)-5-(methylthio)-4-nitro-2-phenyl-1H-pyrrol-3-yl)-3-oxopropanoate], the inhibition at 50 µM on AChE amounted to 38.9 ± 5.99%.

`N#CC(C(N)=O)c1c([N+](=O)[O-])c2n(c1-c1ccc(Cl)cc1)CCCN2` (stereo not shown) [Compound 4i, 2-(6-(4-chlorophenyl)-8-nitro-1,2,3,4-tetrahydropyrrolo[1,2-a]pyrimidin-7-yl)-2-cyanoacetamide]: the inhibition at 50 µM against AChE amounted to 33.9 ± 6.87%.

The values are drawn from article PMC9454393 (Scientific Reports, 2022).
